The values below come from article PMC3157398 (PLoS ONE, 2011).

Experiment [1] has as its target ATP synthase holoenzyme (Bacillus sp., UniProt P00845+P09218). Format: binding, Bacillus PS3.
Experiment [2] has as its target T1, ATP synthase subunit c (Mycobacterium tuberculosis, UniProt P9WPS1).
T1 construct: made in house
Format: binding.

The target in experiment [3] is mycobacterial ATP synthase (Mycolicibacterium smegmatis, UniProt A0R205+A0R206).
The test system of experiment [4] is ATP synthase with resistance mutation D32V in subunit c. The experiment is classed as biochemical, Mycobacterium smegmatis.

T1 sequence (P9WPS1 whole entry): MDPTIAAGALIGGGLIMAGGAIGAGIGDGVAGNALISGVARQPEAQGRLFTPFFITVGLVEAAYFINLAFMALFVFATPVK

Turning to `COc1nc2ccc(N)cc2cc1[C@@H](c1ccccc1)[C@@](O)(CCN(C)C)c1cccc2ccccc12` [TMC207 amino-analog], the “dissociation constant of mono-exponential fit” value in experiment [1] was determined as 0.000103; in experiment [2] it was 0.002295.
As for `CC(C)(C)c1cc(C=C(C#N)C#N)cc(C(C)(C)C)c1O` [SF6847], the “residual ATP synthesis activity” value in experiment [3] is less than 10%.
On to `COc1nc2ccc(Br)cc2cc1[C@@H](c1ccccc1)[C@@](O)(CCN(C)C)c1cccc2ccccc12` [TMC207], for which, in experiment [4], the “inhibition of ATP synthesis” value was “no inhibition”.
